The record followed here is ChEMBL document CHEMBL6134791, “Stereochemical optimization of N,2-substituted cycloalkylamines as norepinephrine reuptake inhibitors” (RSC Med Chem, 2024).

This assay deals with Sodium-dependent noradrenaline transporter (Homo sapiens, UniProt P23975). Nature of the assay: Inhibition of NET (unknown origin) expressed in Jump In T-REx HEK293 cells assessed as decrease in norepinephrine-induced cellular response preincubated for 1 hr followed by norepinephrine stimulation measured for 30 mins by TRACT assay. Format: cell-based.
Sequence of Sodium-dependent noradrenaline transporter (P23975 whole entry): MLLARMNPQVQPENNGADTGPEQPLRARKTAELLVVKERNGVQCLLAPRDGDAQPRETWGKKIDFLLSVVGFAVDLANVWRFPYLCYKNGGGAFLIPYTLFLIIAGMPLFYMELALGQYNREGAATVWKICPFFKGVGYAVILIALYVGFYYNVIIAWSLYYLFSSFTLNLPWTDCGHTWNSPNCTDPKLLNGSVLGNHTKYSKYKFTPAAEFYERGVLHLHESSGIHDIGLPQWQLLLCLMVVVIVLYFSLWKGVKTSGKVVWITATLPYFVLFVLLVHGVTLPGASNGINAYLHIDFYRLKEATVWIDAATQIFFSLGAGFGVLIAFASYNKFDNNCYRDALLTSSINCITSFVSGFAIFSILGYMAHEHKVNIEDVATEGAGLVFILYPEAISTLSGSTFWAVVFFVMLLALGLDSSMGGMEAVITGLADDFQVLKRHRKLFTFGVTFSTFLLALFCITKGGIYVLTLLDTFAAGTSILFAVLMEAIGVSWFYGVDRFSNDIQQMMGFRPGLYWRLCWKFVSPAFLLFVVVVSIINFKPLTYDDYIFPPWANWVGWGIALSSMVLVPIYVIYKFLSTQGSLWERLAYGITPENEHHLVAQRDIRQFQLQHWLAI
On to `COC(=O)CCCNC1CCCC1c1ccc(Cl)c(Cl)c1` (configuration not stated), for which the IC50 was 158 nM.

Regarding `OCCNC1CCCC1c1ccc(Cl)c(Cl)c1` (configuration not stated), the half-maximal inhibitory concentration (IC50) is 79.4 nM.

With `CCCCNC1CCCC1c1ccc(Cl)c(Cl)c1` (configuration not stated), the half-inhibitory concentration (IC50) was 251 nM.

In the case of `CNCCCCNC1CCCC1c1ccc(Cl)c(Cl)c1` (configuration not stated), the concentration for half-maximal inhibition (IC50) was 316 nM.

Turning to `OCCCCNC1CCCCC1c1ccc(Cl)c(Cl)c1` (configuration not stated), the IC50 is 501 nM.

`COCCCCNC1CCCC1c1ccc(Cl)c(Cl)c1` (configuration not stated): the concentration for half-maximal inhibition (IC50) is 100 nM.

For the molecule `Clc1ccc(C2CCCC2NCc2ccccc2)cc1Cl` (configuration not stated), the concentration for half-maximal inhibition (IC50) was 631 nM.

One may read the IC50 as the midpoint of a concentration-inhibition curve.
